Reference: patent US8623392B2, “Allergen inactivating agent” (priority 2007, dated 2014)
“Also recorded” adds a separate entry of the source.

Columns and labels:
[1] = target: T1, freeze-dried Cry j1 (Cryptomeria japonica, UniProt P18632); experiment: ELISA of freeze-dried Cry j1 after exposure to chlorine dioxide gas in 100 L-Tedlar bag; format: biochemical, Japanese cedar; details: 24 hours
T1 construct: purchased Hayashibara Biochemical Labs., Inc
Procedure: (§1) The purified Cry j1 which had been freeze-dried was reacted with chlorine dioxide gas having an average concentration of 0.08 ppm for 24 hours, and measurement was made using ELISA. As a result, 0.08 ppm of chlorine dioxide gas reduced the antigenicity of Cry j1, as compared with the case of air as a control. […] The details will be described below.
In order to examine effect of the chlorine dioxide gas on the freeze-dried Cry j1, […] of the purified Cry j1 adjusted with PBS to the concentration of 10 μg/ml was placed in a […], frozen at −30° C., and freeze-dried overnight using a suction desiccator.
The humidity was controlled using agar, and the generated chlorine dioxide solution was introduced using a syringe into a 100 L-Tedlar bag, so that the concentration therein becomes 0.1 ppm, and air inside the bag was agitated using a crisscross rotor wherein outer diameter of 60 mm×height of 17 mm. Likewise, a bag into which distilled water was introduced was used as a control. The bag was left in an environment of 24° C., and the chlorine dioxide gas concentration inside the bag was measured using a chlorine dioxide gas measuring instrument (Model 4330-SP, Interscan Corporation; measurement range 0 to 1,000 ppb), and when the value was below 0.1 ppm, the generated chlorine dioxide solution was further added to make adjustment. […]

[2] = target: T2, freeze-dried Der fII (Dermatophagoides farinae, UniProt Q00855); experiment: ELISA of freeze-dried Der fII after exposure to chlorine dioxide gas in 100 L-Tedlar bag; format: biochemical, mite; details: 24 hours
T2 sequence (Q00855 18-146): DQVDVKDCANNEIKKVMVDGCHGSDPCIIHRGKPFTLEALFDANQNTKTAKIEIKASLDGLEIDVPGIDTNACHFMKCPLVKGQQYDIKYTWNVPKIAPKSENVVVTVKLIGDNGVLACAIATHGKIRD
Procedure: as §1, with “Der fII” for “Cry j1”, “a” for “an average”, “0.1” for “0.08”, “Der fII,” for “Cry j1,”
In order to examine effect of the chlorine dioxide gas on the freeze-dried Der fII, 10 μl of the purified Der fII adjusted with PBS to the concentration of 10 μg/ml was placed in a 0.2-mL tube, frozen at −30° C., and freeze-dried overnight using a suction desiccator.
The humidity was controlled by a saturated salt method. Inside a Futon bag, a Tupperware containing salt or water therein was placed so as to obtain a target humidity, and next day, inside the bag, a 100 L-Tedlar bag containing the freeze-dried Der fII and a hygrometer was placed. A Tedlar bag into which chlorine dioxide was introduced was light-shielded with aluminum foil. […] The bag was left in an environment of 24° C., and the chlorine dioxide gas concentration inside bag was measured using a chlorine dioxide detector tube (No. 23M having a measurement range of 0.1 to 10 ppm, No. 23L having a measurement range of 0.025 to 1.2 ppm, GASTEC Corporation), and when the value was below 0.1 ppm, the generated chlorine dioxide gas was further added to make adjustment. […]

T1 sequence (P18632 22-374): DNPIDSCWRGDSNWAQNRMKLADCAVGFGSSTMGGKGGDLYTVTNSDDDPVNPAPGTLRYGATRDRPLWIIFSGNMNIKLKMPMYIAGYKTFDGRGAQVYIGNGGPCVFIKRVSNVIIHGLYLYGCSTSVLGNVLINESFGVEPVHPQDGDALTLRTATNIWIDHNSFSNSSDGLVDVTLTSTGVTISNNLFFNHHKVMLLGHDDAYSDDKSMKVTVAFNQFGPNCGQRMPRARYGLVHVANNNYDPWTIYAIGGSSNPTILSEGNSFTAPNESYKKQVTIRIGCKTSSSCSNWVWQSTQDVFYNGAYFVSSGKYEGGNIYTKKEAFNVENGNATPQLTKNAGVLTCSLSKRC

## [O][Cl+][O-] [chlorine dioxide gas, chlorine dioxide]
[1]; chlorine dioxide gas 0.1 ppm (average 0.08 ppm), humidity increased
  antigenicity of freeze-dried Cry j1 at higher relative humidity: further reduced; also recorded: reduced to a larger degree
[1]; chlorine dioxide gas 0.1 ppm set, 0.08 ppm (80 ppb) on average, 24° C., compared with air control
  antigenicity of freeze-dried Cry j1: remarkably reduced
[2]; chlorine dioxide gas 0.1 ppm (0.09 ppm on average), 24° C., compared with air control
  antigenicity of freeze-dried Der fII: remarkably reduced
[2]; chlorine dioxide gas 0.1 ppm, humidity increased
  antigenicity of freeze-dried Der fII at higher relative humidity: reduced to a larger degree; also recorded: further reduced
